Assays:
HEK293-SIE STAT3 Y640F = assay: drug sensitivity score (inhibition of STAT3 luciferase reporter); higher = stronger inhibition; settings: 6 h; IL6 0 ng/ml
Method: (§1)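 HEK293 cells with a STAT3-inducible (SIE) luciferase reporter, stably expressing WT STAT3 (IL6 100 ng/ml) or Y640F STAT3 (no IL6), were incubated 6 h with drugs in 384-well plates (5-8 concentrations over a 10,000-fold range); luciferase was read with ONE-Glo. DSS is a normalised area under the dose-response curve; values are the mean of two experiments.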

HEK293-SIE STAT3 WT = assay: as above; settings: 6 h; STAT3: WT; IL6 100 ng/ml
Method: as §1

NK-92 = assay: drug sensitivity score (viability inhibition); higher = more sensitive; settings: 72 h; IL2 2.5 ng/ml
Method: (§2)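 NK-cell leukemia/lymphoma cell lines (3,000 cells/well) were cultured with IL2 2.5 ng/ml in 384-well drug plates (5-8 concentrations over a 10,000-fold range) for 72 h at 37 C; viability was read with CellTiter-Glo. DSS is a normalised area under the dose-response curve; the experiment was repeated twice.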

KAI3 = assay: as above; settings: 72 h; IL2 2.5 ng/ml
Method: as §2

SNK6 = assay: as above; settings: 72 h; IL2 2.5 ng/ml
Method: as §2

NKL = assay: as above; settings: 72 h; IL2 2.5 ng/ml
Method: as §2

NK-YS = assay: as above; settings: 72 h; IL2 2.5 ng/ml
Method: as §2

KHYG-1 = assay: as above; settings: 72 h; IL2 2.5 ng/ml
Method: as §2

YT = assay: as above; settings: 72 h; IL2 2.5 ng/ml
Method: as §2

Compound | drug sensitivity score (HEK293-SIE STAT3 Y640F) | drug sensitivity score (HEK293-SIE STAT3 WT) | drug sensitivity score (NK-92) | drug sensitivity score (KAI3) | drug sensitivity score (SNK6) | drug sensitivity score (NKL) | drug sensitivity score (NK-YS) | drug sensitivity score (KHYG-1) | drug sensitivity score (YT)
C[C@@H]1CC(=O)c2c(ccc3c2C(=O)c2cccc(O)c2C3=O)C1 [STA-21] | 11.5 DSS | 10.3 DSS | 4.92 DSS | 2.22 DSS | 2.24 DSS | 11.5 DSS | 9.69 DSS | 10 DSS | 5.75 DSS
O=S(=O)(c1cccc2cnccc12)N1CCCNCC1 [Fasudil] | 0 DSS | 1.9 DSS | 2.52 DSS | 2.61 DSS | 0.11 DSS | 0.632 DSS | 0.1 DSS | 1.2 DSS | 1.44 DSS
COC(=O)C[C@](O)(CCCC(C)(C)O)C(=O)O[C@@H]1C(OC)=C[C@]23CCCN2CCc2cc4c(cc2[C@H]13)OCO4 [homoharringtonine] | 36.6 DSS | 39 DSS | 31.2 DSS | 33.4 DSS | 34.6 DSS | 32.2 DSS | 32.5 DSS | 29.6 DSS | 34.5 DSS
C[C@@H]1C[C@H]2[C@@H]3CCC4=CC(=O)C=C[C@]4(C)[C@@]3(F)[C@@H](O)C[C@]2(C)[C@@]1(O)C(=O)CO [Dexamethasone] | 2.6 DSS | 1.8 DSS | 0 DSS | 1.14 DSS | 0 DSS | 24.6 DSS | 3.83 DSS | 15.6 DSS | 9.73 DSS
O=P1(N(CCCl)CCCl)NCCCO1 (stereo unspecified) [Cyclophosphamide] | 1.17 DSS | 2.6 DSS | 0 DSS | 1.89 DSS | 0.54 DSS | 0 DSS | 0.435 DSS | 0 DSS | 0 DSS
CC[C@H](Nc1ncnc2[nH]cnc12)c1nc2cccc(F)c2c(=O)n1-c1ccccc1 [Idelalisib] | 3.9 DSS | 0 DSS | 9.76 DSS | 1.38 DSS | 5.48 DSS | 1.96 DSS | 0.598 DSS | 0.4 DSS | 1.42 DSS
COc1ccccc1S(=O)(=O)Nc1ccc2c(c1)CN(C)C(=O)N2 [PFI-1] | 0 DSS | 6.65 DSS | 0.03 DSS | 1.7 DSS | 4.16 DSS | 4.02 DSS | 6.22 DSS | 7.25 DSS | 3.24 DSS
CCN(CC)CCOc1ccc(C(=C(Cl)c2ccccc2)c2ccccc2)cc1 [Clomifene] | 0 DSS | 1.9 DSS | 5.49 DSS | 5.61 DSS | 5.13 DSS | 4.4 DSS | 2.67 DSS | 5.07 DSS | 4.23 DSS
C#Cc1cccc(Nc2ncnc3cc4c(cc23)OCCOCCOCCO4)c1 [Icotinib] | 0 DSS | 2.75 DSS | 2.41 DSS | 0.075 DSS | 2.53 DSS | 0 DSS | 0.207 DSS | 0.998 DSS | 0.21 DSS
Cc1[nH]c2ccccc2c1CCNCc1ccc(/C=C/C(=O)NO)cc1 [Panobinostat] | 4.7 DSS | 3.75 DSS | 21.8 DSS | 21.9 DSS | 21.9 DSS | 24.2 DSS | 23 DSS | 23.1 DSS | 18.8 DSS
C[C@]12O[C@H](C[C@]1(O)CO)n1c3ccccc3c3c4c(c5c6ccccc6n2c5c31)CNC4=O [Lestaurtinib] | 10.8 DSS | 20.7 DSS | 14.3 DSS | 18.3 DSS | 13 DSS | 14.6 DSS | 12.4 DSS | 22 DSS | 13.5 DSS
CC(C)n1nc(-c2ccc3oc(N)nc3c2)c2c(N)ncnc21 [INK128] | 12 DSS | 13.8 DSS | 10.7 DSS | 7.66 DSS | 8.08 DSS | 16.2 DSS | 11.8 DSS | 7.21 DSS | 11.9 DSS
COc1ccc(-c2cc3c(C)nc(N)nc3n([C@H]3CC[C@H](OCCO)CC3)c2=O)cn1 | 9.1 DSS | 14.9 DSS | 19.2 DSS | 9.49 DSS | 5.96 DSS | 15.4 DSS | 15 DSS | 13.9 DSS | 16.1 DSS
COc1c(C)cnc(Cn2cnc3c(Cl)nc(N)nc32)c1C [BIIB021] | 9.85 DSS | 15.3 DSS | 23 DSS | 26 DSS | 25.4 DSS | 21.9 DSS | 24.7 DSS | 26.4 DSS | 22.2 DSS
Cn1c(=O)n(-c2ccc(C(C)(C)C#N)cc2)c2c3cc(-c4cnc5ccccc5c4)ccc3ncc21 [Dactolisib] | 12.8 DSS | 15.1 DSS | 12 DSS | 10.3 DSS | 8.33 DSS | 18.2 DSS | 15.8 DSS | 14 DSS | 13.4 DSS
Cn1cc(CNCC2CCN(c3ncc(C(=O)NO)cn3)CC2)c2ccccc21 [Quisinostat] | 1.9 DSS | 2.3 DSS | 13.8 DSS | 16.1 DSS | 13.3 DSS | 22 DSS | 22 DSS | 20.4 DSS | 14.2 DSS
CO[C@@H](C(=O)N1Cc2[nH]nc(NC(=O)c3ccc(N4CCN(C)CC4)cc3)c2C1)c1ccccc1 [Danusertib] | 5.2 DSS | 6.8 DSS | 6.91 DSS | 7.82 DSS | 14.4 DSS | 5.43 DSS | 12.9 DSS | 13 DSS | 6.55 DSS
C[C@@H]1C=C2C(=O)O[C@@H]3CC[C@H](C1)[C@]23O [Galiellalactone] | 0 DSS | 0 DSS | 3.98 DSS | 5 DSS | 6.92 DSS | 1.09 DSS | 3.55 DSS | 4.09 DSS | 1.84 DSS
O=[N+]([O-])c1ccc2c(c1)S(=O)(=O)C=C2 [Stattic] | 7.37 DSS | 8.32 DSS | 13.2 DSS | 14.3 DSS | 14.1 DSS | 10.7 DSS | 12.4 DSS | 13.3 DSS | 14.6 DSS
CN(C)C[C@@H]1CCn2cc(c3ccccc32)C2=C(C(=O)NC2=O)c2cn(c3ccccc23)CCO1 [Ruboxistaurin] | 0.3 DSS | 3.95 DSS | 4.64 DSS | 4.46 DSS | 4.54 DSS | 7.79 DSS | 8.41 DSS | 9.45 DSS | 4.62 DSS
O=C(Cc1ccc(-c2ccc(OCCN3CCOCC3)cc2)cn1)NCc1ccccc1 [KX2-391] | 0 DSS | 0 DSS | 32.4 DSS | 22.4 DSS | 31.7 DSS | 31.2 DSS | 28.1 DSS | 31.6 DSS | 31.7 DSS
Cc1cc(Nc2cc(CN3CCOCC3)c3nc(C)c(Cc4ccc(Cl)cc4F)n3n2)n[nH]1 [Gandotinib] | 8.4 DSS | 24 DSS |  |  |  |  |  |  | 

Source: the supplement of paper PMC5722580
